Assay results reported in patent US8748601B2, “Selective serine/threonine kinase inhibitors” (The Regents of the University of California, priority 2003, dated 2014).

Experiments:
[1] = biological target: T1, Rsk2 CTD (Homo sapiens, UniProt P51812); assay: Rsk2 CTD in vitro kinase assay, wild type; format: biochemical; settings: read-out: IC50 for RSK2
T1 construct: We tested the halomethylketones against the Rsk2 CTD by adapting an in vitro kinase assay; made in house
From the text: We tested the halomethylketones against the Rsk2 CTD by adapting an in vitro kinase assay developed by Chrestensen and Sturgill, J, Biol. Chem. 277:27733 (2002).

[2] = system: Rsk; assay: Inhibition of RSK by fmk-pa (click chemistry, PMA-stimulated HEK-293 cells); format: cell-based; settings: FIG. 9
Procedure: Click reactions were performed as previously described by Speers et al., “Profiling enzyme activities in vivo using click chemistry methods”. Chem Biol 11, 535-46 (2004). Briefly, RSK2 CTD (30 nM) pretreated with the indicated concentrations of fmk-pa, or lysates from fmk-pa-pretreated cells were incubated with TAMRA-N3 or biotin-N3 ([…]), TCEP (1 mM), CuSO4 (1 mM), and TBAT ([…]) in PBS [pH 7.4] containing 1% SDS for 1 h at room temperature.
(§1) Confluent HEK-293 cells in 12-well plates were deprived of serum for 2 h and subsequently treated with the indicated concentrations of inhibitors for 1 h at 37° C. After stimulation with PMA ([…]) for 30 min, cells were washed with cold PBS and harvested in either PBS lysis buffer (FIG. 9c) or hypertonic lysis buffer (FIG. 10). Click chemistry was performed with TAMRA-N3 in lysates from cells treated with fmk-pa. Proteins were analyzed by in-gel fluorescence scanning or Western blotting.
RSK2 CTD was treated with the indicated concentrations of fmk-pa for 1 h followed by […] fmk-BODIPY for 1 h. After click conjugation with TAMRA-N3 (see Methods), proteins were resolved by 10% SDS-PAGE and detected by sequential in-gel fluorescence scanning using filters specific for TAMRA and BODIPY. […] Proteins were resolved by 10% SDS-PAGE and detected by in-gel fluorescence scanning (left) and Coomassie blue staining (right).

[3] = system: rpS6 Ser235/236 phosphorylation; assay: PMA-stimulated rpS6 Ser235/236 phosphorylation in HEK-293 cells; format: cell-based; settings: 300 nM fmk-pa together with rapamycin, HEK-293, PMA
Procedure: as §1
Serum-starved HEK-293 cells were treated with the indicated concentrations of rapamycin in the absence (left lanes) or presence (right lanes) of 300 nM fmk-pa for 1 h and stimulated with PMA (100 ng/mL) for 30 min. Proteins were resolved by 10% SDS-PAGE and detected by Western blotting with antibodies to phospho-Ser235/236 rpS6, phospho-Ser386 RSK, and total RSK2. […] Percent rpS6 Ser235/236 phosphorylation was determined by quantification of Western blots (e.g., FIG. 3a) relative to DMSO controls using ImageJ. Data represent mean±s.e.m. from 3 independent experiments.

[4] = system: RSK; assay: RSK modification by fmk-pa in primary mouse macrophages (click chemistry); format: cell-based; settings: pretreated for 1 h, LPS-stimulated
Procedure: Confluent macrophages in 12-well plates were incubated in DMEM supplemented with 20 mM Hepes [pH 7.4] and 0.5% FBS for […] prior to treatment with the indicated concentrations of fmk-pa for 1 h at 37° C. After stimulation with either PMA ([…]) or LPS ([…]) for 30 min, cells were washed with cold PBS and harvested in PBS lysis buffer. Click chemistry was performed with TAMRA-N3 and proteins were subsequently analyzed by in-gel fluorescence scanning or Western blotting.
FIG. 11. Fmk-pa and click chemistry reveal the existence of a CTD-independent pathway for RSK Ser386 phosphorylation. […] Macrophages were cultured in 0.5% serum for 20 h and subsequently treated with the indicated concentrations of fmk-pa for 1 h. Cells were stimulated with either PMA (100 ng/mL) or LPS (1 mg/mL) for 30 min and harvested in PBS. Proteins were resolved by 10% SDS-PAGE and detected by Western blotting with antibodies to phospho-Ser386 RSK and total RSK2. […] Data represent mean±s.e.m. from 3 independent experiments. […] Proteins were resolved by 10% SDS-PAGE and detected by in-gel fluorescence scanning. […] Eluted proteins were resolved by 10% SDS-PAGE and detected by Western blotting with streptavidin-HRP or antibodies to RSK1, RSK2, and phospho-Ser386 RSK.

T1 sequence (P51812 422-679 limits assumed): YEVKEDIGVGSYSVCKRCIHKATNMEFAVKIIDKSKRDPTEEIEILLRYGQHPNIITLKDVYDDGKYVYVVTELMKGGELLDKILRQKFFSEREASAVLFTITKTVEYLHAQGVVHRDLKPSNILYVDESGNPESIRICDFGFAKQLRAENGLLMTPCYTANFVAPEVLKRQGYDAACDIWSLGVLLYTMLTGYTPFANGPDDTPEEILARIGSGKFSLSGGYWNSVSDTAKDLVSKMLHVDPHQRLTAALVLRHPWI

IC50 [1]: < 1000 nM
Structure (SMILES): C#CCNCCCn1c(C(=O)CF)c(-c2ccc(C)cc2)c2c(N)ncnc21 [propargylamine-fmk 18]
Inhibition of RSK [2]: irreversible, selective, and potent inhibition | Inhibition of rpS6 phosphorylation [3]: additive inhibition | RSK modification in intact macrophages [4]: saturable RSK modification
